This is an account of results in US20070077279A1, “Novel compositions containing polyphenols” (DSM IP Assets B.V., priority 2005, published 2007).

Format in all cases: physicochemical
Series [1] can be described thus: Storage test of chewable tablets under accelerated conditions (40° C./75% relative humidity) in closed polypropylene tubes. The following applies: chewable tablets of Example 2; for Initial Assay, vitamin/polyphenol in mg/tablet: 40° C./75% relative humidity study; for Vitamin/polyphenol in mg/tablet, 1 month 40° C. / Vitamin/polyphenol in mg/tablet, 2 months 40° C. / Vitamin/polyphenol in mg/tablet, 3 months 40° C.: 40° C./75% relative humidity.

The nature of series [2]: Storage test of lozenges at room temperature (25° C./60% relative humidity) in closed polypropylene tubes. The following applies: for Vitamin/polyphenol in mg/tablet, 1 month: lozenges of Example 1, 1 month; for Vitamin/polyphenol in mg/tablet, 2 months: lozenges of Example 1, 2 months; for Vitamin/polyphenol in mg/tablet, 3 months: lozenges of Example 1, 3 months; for Vitamin/polyphenol in mg/tablet, 6 months: lozenges of Example 1, 6 months; for Vitamin/polyphenol in mg/tablet, 12 months: lozenges of Example 1, 12 months; for Vitamin/polyphenol in mg/tablet, 18 months: lozenges of Example 1, 18 months; for Vitamin/polyphenol in mg/tablet, 24 months: lozenges of Example 1, 24 months.

The nature of series [3]: Storage test of chewable tablets at room temperature (25° C./60% relative humidity) in closed polypropylene tubes. The following applies: for Vitamin/polyphenol in mg/tablet, 1 month: chewable tablets of Example 2, 1 month; for Vitamin/polyphenol in mg/tablet, 2 months: chewable tablets of Example 2, 2 months; for Vitamin/polyphenol in mg/tablet, 3 months: chewable tablets of Example 2, 3 months; for Vitamin/polyphenol in mg/tablet, 6 months: chewable tablets of Example 2, 6 months; for Vitamin/polyphenol in mg/tablet, 12 months: chewable tablets of Example 2, 12 months.

Series [4] is described as follows: Storage test of lozenges under accelerated conditions (40° C./75% relative humidity) in closed polypropylene tubes. The settings on record: lozenges of Example 1; for Initial Assay, vitamin/polyphenol in mg/tablet: 40° C./75% relative humidity study; for Vitamin/polyphenol in mg/tablet, 1 month 40° C. / Vitamin/polyphenol in mg/tablet, 2 months 40° C. / Vitamin/polyphenol in mg/tablet, 3 months 40° C.: 40° C./75% relative humidity.

Setting [5] is: lozenges of Example 1, initial (Table 2).
Setting [6] is: chewable tablets of Example 2, initial.
[7] abbreviates: chewable tablets of Example 2, initial (Table 4).

Consider `O=C(O[C@@H]1Cc2c(O)cc(O)cc2O[C@@H]1c1cc(O)c(O)c(O)c1)c1cc(O)c(O)c(O)c1` [EGCG, epigallocatechin gallate], for which, in series [1], the “Initial Assay, vitamin/polyphenol in mg/tablet” value amounted to 23.8 mg; the “Vitamin/polyphenol in mg/tablet, 1 month 40° C.” value was 24.8 mg; the “Vitamin/polyphenol in mg/tablet, 2 months 40° C.” value turned out to be 23.2 mg; the “Vitamin/polyphenol in mg/tablet, 3 months 40° C.” value is 23.2 mg. In series [2], the “Vitamin/polyphenol in mg/tablet, 1 month” value was 11.8 mg; the “Vitamin/polyphenol in mg/tablet, 2 months” value was 10.9 mg; the “Vitamin/polyphenol in mg/tablet, 3 months” value was 11.0 mg; the “Vitamin/polyphenol in mg/tablet, 6 months” value amounted to 10.6 mg. Moreover, in series [2], the “Vitamin/polyphenol in mg/tablet, 12 months” value amounted to 11.6 mg; the “Vitamin/polyphenol in mg/tablet, 18 months” value was 12.0 mg; the “Vitamin/polyphenol in mg/tablet, 24 months” value turned out to be 11.3 mg. For the same molecule, the “Initial Assay, vitamin/polyphenol in mg/tablet” value in series [2] (lozenges of Example 1, initial) was 11.9 mg. Besides, the “Initial Assay, vitamin/polyphenol in mg/tablet” value in series [2] (setting [5]) is 11.9 mg. Moreover, in series [3], the “Vitamin/polyphenol in mg/tablet, 1 month” value is 23.0 mg; the “Vitamin/polyphenol in mg/tablet, 2 months” value is given as 23.8 mg; the “Vitamin/polyphenol in mg/tablet, 3 months” value was found to be 24.1 mg; the “Vitamin/polyphenol in mg/tablet, 6 months” value stood at 23.7 mg. Besides, in series [3], the “Vitamin/polyphenol in mg/tablet, 12 months” value is recorded as 22.6 mg. Besides, in series [3] (setting [6]), the “Initial Assay, vitamin/polyphenol in mg/tablet” value worked out at 23.8 mg. Moreover, the “Initial Assay, vitamin/polyphenol in mg/tablet” value in series [3] (setting [7]) is 23.8 mg. For the same molecule, in series [4], the “Initial Assay, vitamin/polyphenol in mg/tablet” value is on record as 11.9 mg; the “Vitamin/polyphenol in mg/tablet, 1 month 40° C.” value was 11.8 mg; the “Vitamin/polyphenol in mg/tablet, 2 months 40° C.” value was 11.4 mg; the “Vitamin/polyphenol in mg/tablet, 3 months 40° C.” value was found to be 10.6 mg.
Consider `O=C1O[C@H]([C@@H](O)CO)C(O)=C1O` [Vit C, Ascorbic Acid], for which, in series [1], the “Initial Assay, vitamin/polyphenol in mg/tablet” value was 33.7 mg; the “Vitamin/polyphenol in mg/tablet, 1 month 40° C.” value is listed as 31.8 mg; the “Vitamin/polyphenol in mg/tablet, 2 months 40° C.” value was determined as 32.4 mg; the “Vitamin/polyphenol in mg/tablet, 3 months 40° C.” value is 33.6 mg. Also, in series [2], the “Vitamin/polyphenol in mg/tablet, 1 month” value is given as 11.4 mg; the “Vitamin/polyphenol in mg/tablet, 2 months” value is listed as 12.2 mg; the “Vitamin/polyphenol in mg/tablet, 3 months” value is 11.3 mg; the “Vitamin/polyphenol in mg/tablet, 6 months” value turned out to be 12.3 mg. Further, in series [2], the “Vitamin/polyphenol in mg/tablet, 12 months” value amounted to 12.1 mg; the “Vitamin/polyphenol in mg/tablet, 18 months” value is 12.0 mg; the “Vitamin/polyphenol in mg/tablet, 24 months” value turned out to be 11.9 mg. The “Initial Assay, vitamin/polyphenol in mg/tablet” value in series [2] (lozenges of Example 1, initial) came out at 12.2 mg. Further, the “Initial Assay, vitamin/polyphenol in mg/tablet” value in series [2] (setting [5]) stood at 12.2 mg. Further, in series [3], the “Vitamin/polyphenol in mg/tablet, 1 month” value worked out at 32.3 mg; the “Vitamin/polyphenol in mg/tablet, 2 months” value came out at 33.3 mg; the “Vitamin/polyphenol in mg/tablet, 3 months” value was determined as 36.1 mg; the “Vitamin/polyphenol in mg/tablet, 6 months” value was found to be 32.5 mg. In addition, in series [3], the “Vitamin/polyphenol in mg/tablet, 12 months” value came out at 33.0 mg. In series [3] (setting [6]), the “Initial Assay, vitamin/polyphenol in mg/tablet” value is 33.7 mg. The “Initial Assay, vitamin/polyphenol in mg/tablet” value in series [3] (setting [7]) is on record as 33.7 mg. Moreover, in series [4], the “Initial Assay, vitamin/polyphenol in mg/tablet” value came to 12.2 mg; the “Vitamin/polyphenol in mg/tablet, 1 month 40° C.” value amounted to 11.2 mg; the “Vitamin/polyphenol in mg/tablet, 2 months 40° C.” value stood at 11.1 mg; the “Vitamin/polyphenol in mg/tablet, 3 months 40° C.” value amounted to 11.2 mg.
For the molecule `CC(=O)Oc1c(C)c(C)c2c(c1C)CCC(C)(CCC[C@H](C)CCC[C@H](C)CCCC(C)C)O2` (stereo partly drawn) [Vit E, Tocopherol Acetate], in series [1], the “Initial Assay, vitamin/polyphenol in mg/tablet” value is on record as 8.3 mg; the “Vitamin/polyphenol in mg/tablet, 1 month 40° C.” value stood at 8.7 mg; the “Vitamin/polyphenol in mg/tablet, 2 months 40° C.” value was 8.5 mg; the “Vitamin/polyphenol in mg/tablet, 3 months 40° C.” value is given as 8.5 mg. Also, in series [2], the “Vitamin/polyphenol in mg/tablet, 1 month” value was 1.7 mg; the “Vitamin/polyphenol in mg/tablet, 2 months” value amounted to 1.7 mg; the “Vitamin/polyphenol in mg/tablet, 3 months” value is recorded as 1.8 mg; the “Vitamin/polyphenol in mg/tablet, 6 months” value stood at 1.6 mg. Besides, in series [2], the “Vitamin/polyphenol in mg/tablet, 12 months” value is given as 1.5 mg; the “Vitamin/polyphenol in mg/tablet, 18 months” value is 1.6 mg; the “Vitamin/polyphenol in mg/tablet, 24 months” value stood at 1.7 mg. In series [2] (lozenges of Example 1, initial), the “Initial Assay, vitamin/polyphenol in mg/tablet” value was 1.6 mg. Further, the “Initial Assay, vitamin/polyphenol in mg/tablet” value in series [2] (setting [5]) was 1.6 mg. In addition, in series [3], the “Vitamin/polyphenol in mg/tablet, 1 month” value is reported as 8.4 mg; the “Vitamin/polyphenol in mg/tablet, 2 months” value was found to be 8.5 mg; the “Vitamin/polyphenol in mg/tablet, 3 months” value worked out at 8.6 mg; the “Vitamin/polyphenol in mg/tablet, 6 months” value is 8.3 mg. Moreover, the “Vitamin/polyphenol in mg/tablet, 12 months” value in series [3] came to 8.6 mg. Also, the “Initial Assay, vitamin/polyphenol in mg/tablet” value in series [3] (setting [6]) was 8.3 mg. The “Initial Assay, vitamin/polyphenol in mg/tablet” value in series [3] (setting [7]) came to 8.3 mg. For the same molecule, in series [4], the “Initial Assay, vitamin/polyphenol in mg/tablet” value was 1.6 mg; the “Vitamin/polyphenol in mg/tablet, 1 month 40° C.” value came to 1.6 mg; the “Vitamin/polyphenol in mg/tablet, 2 months 40° C.” value turned out to be 1.6 mg; the “Vitamin/polyphenol in mg/tablet, 3 months 40° C.” value is 1.8 mg.
